{"source": "patent US20240166658A1", "about": "“PORPHYRIN DERIVATIVES AND USES THEREOF” (University of Tasmania, priority 2021, published 2024)", "key": {"[1]": {"experiment": "PFCA guest response screening (RGB analysis, UV-Vis)", "method": "A Puluz® 20 cm portable light tent with moderate and dispersed white LED lighting was used to photograph samples using an iPhone 6S plus camera on a fixed tripod. The automatic flash settings were disabled so there was no reflective interference on the sample vials. Samples that were being directly compared were photographed together to ensure lighting conditions and settings were consistent. The photographs were analysed using ImageJ software according to the procedure of Gallagher, 2014b. Multiple RGB values were chosen from areas of each sample at random to provide an “average” RGB value (Menesatti et al., 2012; Gallagher, 2014a; Phuangsaijai et al., 2021). Those RGB values were used to produce an artificial colour tile for visual comparison, or parameterized for modelling.\nTo quantify a colour difference, RGB values were transformed within the CIELab colour space. The difference, expressed as ΔE, was determined by measuring the relative distance between two colours. The numeric ΔE value can be used to predict how the two colours are perceived by a standard observer; a ΔE>2 is considered the minimum value to achieve a “just noticeable difference” (JND) (Table 1), which is the smallest difference required for an untrained observer to be able to determine two colours as being different (Castillo et al., 2021).\nExperiments were performed at concentrations that could be monitored by the naked eye for practical sensing of PFAS in the field. Complexes of hosts (9), (11) and (12) were formed with the nine different perfluorocarboxylic acids (PFCAs) shown in Table 2 above and the colours of each host−PFCA complex were photographed in a lightbox and analysed using ImageJ software RGB analysis. Pixels of the solution were chosen at random to provide an RGB value. Multiple RGB values were recorded for each host−PFCA solution, and an average colour can be produced. From those values an RGB parameter was used to give a response value for modelling (Tahir et al., 2016).\nAfter preliminary screenings, UV-Vis spectra were collected before and after the addition of 1 molar equivalent of each PFCA for each host, and the degree of complexation was noted by shifts in the Soret bands and formation of a peak at ca. 650 nm. To eliminate dilution effects, PFCA guest solutions were prepared in the equivalent concentration of host. If there was a notable host−guest interaction for a particular PFCA, the host−guest binding was investigated with more rigorous UV-Vis experiments, binding studies, and further colour analyses. Throughout these investigations, PFOA was considered the “average” PFCA both because of its position in the range of PFCA sizes and because its prevalence is often an indication of broader PFAS contamination. In any experiment where binding was further investigated for a particular PFCA, it was typically replicated with PFOA for comparison."}, "[2]": {"experiment": "UV-Vis host-guest titration, association constant", "assay_type": "binding", "method": "(§1) Path length of the quartz cell was 1 cm. For UV-vis titrations, a stock solution of host was prepared (2.2×10^−3 M) in dichloromethane (DCM) and serially diluted to the required concentrations. Working solutions of tetrabutylammonium (TBA) anion salts or guest molecules were prepared in the same manner Host−guest titrations used solutions of guest prepared in the working concentration of host solution, according to the procedure of Thordarson, 2011.\n(§2) UV-vis spectroscopic host−guest titrations were performed in accordance with the methodologies of Thordarson, 2011. Solutions of host in dichloromethane were prepared. Solutions of guest were then prepared in the host solution. Aliquots of guest in host solution were added to host solution and sequentially analysed until a known molar equivalent of guest was added. The amount of guest added per aliquot was ascertained by a preliminary screening experiment; strong association constants required smaller molar equivalents so more information could be collected. […] The inverse is true for weaker binding interactions. Molar equivalents between 0.1-5 typically provided adequate information for modelling. The data was then used to simulate binding isotherms using www.supramolecular.org (Hibbert and Thordarson, 2016). The data was fitted to 1:1, 1:2 and 2:1 equilibria making no assumptions about the cooperativity of the binding interactions and modelled using different algorithms. These experiments mainly used the Nelder-Mead (Simplex) method.\nUV-Vis spectroscopy binding studies were used to determine the association constant for the host (9)−PFOA complex.\n(§3) A host solution of host (9) in dichloromethane was monitored using UV-Vis analysis as 0.5-10 equivalents of each PFAS was added. […] The data was processed using Bindfit isotherm simulators using both Nelder-Mead and L-BFGS-B methods (Thordarson, 2011).\n(§4) To highlight any potential binding preferences across the PFCAs from the host molecules, triplicates of host−guest addition titrations were performed using host (9) and the TBA salts of the nine different deprotonated PFCAs."}, "[3]": {"experiment": "UV-Vis host-guest titration, association constant", "assay_type": "binding", "method": "as §1, §2, §3, §4\nHost (12) was also modelled for secondary binding interactions in the presence of additional guest (Table 9).", "remark": "listed apart in the source"}, "[4]": {"experiment": "Colorimetric calibration chart, RGB response to known PFOA concentrations", "conditions": "PFOA 0.7 ppm, dichloromethane", "method": "The host molecules were combined with known concentrations of PFOA to provide RGB colour responses, which were used to create a colorimetric calibration chart that could be trialled as an indicator for estimating the total concentration of a range of any PFCAs. Solutions of each host molecule (1.00×10^−5 M) were prepared in dichloromethane. Solutions of PFOA in dichloromethane were prepared across a range of concentrations (0→16 ppm, 4.00×10^−5 M). Each host (2 mL) was combined with each PFOA concentration (1 mL, final concentration 0→1.33×10^−5 M) and photographed under equivalent lighting conditions. The average colour of each solution was then found using ImageJ RGB analysis, and a colour chart was produced.\nFor this reason, parametrization of the RGB values can be useful for interpreting results. The RGB response parameter can be calculated using the RGB values of the “blank” host solution (Šafranko et al., 2019) and the effective intensities of the individual RGB values of a sample (Tahir et al., 2016):\nHere, H, indicates the values for the host solution, and S, indicates the response for a sample containing a PFCA, so that ΔR, ΔG, and ΔB give the colour differences. The RGB parameter is the response due to the relative difference in the RGB intensities:\nThe RGB values collected for each host with a range of known concentrations of PFOA in dichloromethane were parameterized and used to determine a relationship between concentration of analyte and RGB response values. […] The relationship between RGB response values and concentrations of PFOA could now be tested for accuracy in determining the concentration of any PFCA."}, "[5]": {"conditions": "host + one equivalent PFBA in dichloromethane"}, "[6]": {"conditions": "host + one equivalent PFDA in dichloromethane"}, "[7]": {"conditions": "host + one equivalent PFDoDA in dichloromethane"}, "[8]": {"conditions": "host + one equivalent PFHpA in dichloromethane"}, "[9]": {"conditions": "host + one equivalent PFHxA in dichloromethane"}, "[10]": {"conditions": "host + one equivalent PFNA in dichloromethane"}, "[11]": {"conditions": "host + one equivalent PFOA in dichloromethane"}, "[12]": {"conditions": "host + one equivalent PFPeA in dichloromethane"}, "[13]": {"conditions": "host + one equivalent PFUnDA in dichloromethane"}, "[14]": {"conditions": "host (9) in dichloromethane, triplicate, TBA salt and acid, Bindfit"}, "[15]": {"conditions": "short, medium and long chain sensor molecules with PFOA"}}}
{"smiles": "O=C(Nc1ccccc1-c1c2nc(c(-c3ccccc3NC(=O)C(F)(F)C(F)(F)C(F)(F)C(F)(F)C(F)(F)C(F)(F)C(F)(F)F)c3ccc([nH]3)c(-c3ccccc3NC(=O)C(F)(F)C(F)(F)C(F)(F)C(F)(F)C(F)(F)C(F)(F)C(F)(F)F)c3nc(c(-c4ccccc4NC(=O)C(F)(F)C(F)(F)C(F)(F)C(F)(F)C(F)(F)C(F)(F)C(F)(F)F)c4ccc1[nH]4)C=C3)C=C2)C(F)(F)C(F)(F)C(F)(F)C(F)(F)C(F)(F)C(F)(F)C(F)(F)F", "note": "[host (9), α,α,α,α-5,10,15,20-tetrakis(2-(pentadecafluorooctanoylamino)phenyl)porphyrin]", "values": [{"measurement": "Absorbance @ 650 nm", "setting": "[1]; [5]", "result": 0.04939}, {"measurement": "Absorbance @ 650 nm", "setting": "[1]; [6]", "result": 0.03023}, {"measurement": "Absorbance @ 650 nm", "setting": "[1]; [7]", "result": 0.01719}, {"measurement": "Absorbance @ 650 nm", "setting": "[1]; [8]", "result": 0.04879}, {"measurement": "Absorbance @ 650 nm", "setting": "[1]; [9]", "result": 0.04964}, {"measurement": "Absorbance @ 650 nm", "setting": "[1]; [10]", "result": 0.02986}, {"measurement": "Absorbance @ 650 nm", "setting": "[1]; [11]", "result": 0.02885}, {"measurement": "Absorbance @ 650 nm", "setting": "[1]; [12]", "result": 0.04302}, {"measurement": "Absorbance @ 650 nm", "setting": "[1]; [13]", "result": 0.02958}, {"measurement": "ΔEHost-PFCA", "setting": "[1]; host vs host + PFBA", "result": 46.1}, {"measurement": "ΔEHost-PFCA", "setting": "[1]; host vs host + PFDA", "result": 39.6}, {"measurement": "ΔEHost-PFCA", "setting": "[1]; host vs host + PFDoDA", "result": 22.4}, {"measurement": "ΔEHost-PFCA", "setting": "[1]; host vs host + PFHpA", "result": 47.2}, {"measurement": "ΔEHost-PFCA", "setting": "[1]; host vs host + PFHxA", "result": 47.3}, {"measurement": "ΔEHost-PFCA", "setting": "[1]; host vs host + PFNA", "result": 38.5}, {"measurement": "ΔEHost-PFCA", "setting": "[1]; host vs host + PFOA", "result": 39.3}, {"measurement": "ΔEHost-PFCA", "setting": "[1]; host vs host + PFPeA", "result": 46.2}, {"measurement": "ΔEHost-PFCA", "setting": "[1]; host vs host + PFUnDA", "result": 38.5}, {"measurement": "association constant (Ka)", "setting": "[2]; host 1.01×10^−6 M in dichloromethane, TBAPFO aliquots, 1:1, Nelder-Mead and L-BFGS-B", "result": "~2.8e+06", "unit": "M⁻¹"}, {"measurement": "K value (averaged association constant Ka)", "setting": "[2]; [14]", "result": 109574}, {"measurement": "K", "setting": "[2]; [15]", "result": "1.77e+06", "unit": "M⁻¹"}, {"measurement": "K value (averaged association constant Ka)", "setting": "[3]; [14]", "result": 1010}, {"measurement": "ΔE between host and lowest PFOA concentration", "setting": "[4]", "result": 11}]}
{"smiles": "O=C(Nc1ccccc1-c1c2nc(c(-c3ccccc3NC(=O)C(F)(F)C(F)(F)C(F)(F)C(F)(F)C(F)(F)C(F)(F)C(F)(F)C(F)(F)C(F)(F)C(F)(F)C(F)(F)F)c3ccc([nH]3)c(-c3ccccc3NC(=O)C(F)(F)C(F)(F)C(F)(F)C(F)(F)C(F)(F)C(F)(F)C(F)(F)C(F)(F)C(F)(F)C(F)(F)C(F)(F)F)c3nc(c(-c4ccccc4NC(=O)C(F)(F)C(F)(F)C(F)(F)C(F)(F)C(F)(F)C(F)(F)C(F)(F)C(F)(F)C(F)(F)C(F)(F)C(F)(F)F)c4ccc1[nH]4)C=C3)C=C2)C(F)(F)C(F)(F)C(F)(F)C(F)(F)C(F)(F)C(F)(F)C(F)(F)C(F)(F)C(F)(F)C(F)(F)C(F)(F)F", "note": "[host (12), α,α,α,α-5,10,15,20-tetrakis(2-(tricosafluorododecanoylamino)phenyl) porphyrin]", "values": [{"measurement": "Absorbance @ 650 nm", "setting": "[1]; [5]", "result": 0.0906}, {"measurement": "Absorbance @ 650 nm", "setting": "[1]; [6]", "result": 0.0918}, {"measurement": "Absorbance @ 650 nm", "setting": "[1]; [7]", "result": 0.0769}, {"measurement": "Absorbance @ 650 nm", "setting": "[1]; [8]", "result": 0.0737}, {"measurement": "Absorbance @ 650 nm", "setting": "[1]; [9]", "result": 0.0728}, {"measurement": "Absorbance @ 650 nm", "setting": "[1]; [10]", "result": 0.0953}, {"measurement": "Absorbance @ 650 nm", "setting": "[1]; [11]", "result": 0.0913}, {"measurement": "Absorbance @ 650 nm", "setting": "[1]; [12]", "result": 0.0692}, {"measurement": "Absorbance @ 650 nm", "setting": "[1]; [13]", "result": 0.0808}, {"measurement": "ΔEHost-PFCA", "setting": "[1]; host vs host + PFBA", "result": 21.1}, {"measurement": "ΔEHost-PFCA", "setting": "[1]; host vs host + PFDA", "result": 22.3}, {"measurement": "ΔEHost-PFCA", "setting": "[1]; host vs host + PFDoDA", "result": 17.9}, {"measurement": "ΔEHost-PFCA", "setting": "[1]; host vs host + PFHpA", "result": 16.3}, {"measurement": "ΔEHost-PFCA", "setting": "[1]; host vs host + PFHxA", "result": 17.5}, {"measurement": "ΔEHost-PFCA", "setting": "[1]; host vs host + PFNA", "result": 22.3}, {"measurement": "ΔEHost-PFCA", "setting": "[1]; host vs host + PFOA", "result": 21.8}, {"measurement": "ΔEHost-PFCA", "setting": "[1]; host vs host + PFPeA", "result": 9.8}, {"measurement": "ΔEHost-PFCA", "setting": "[1]; host vs host + PFUnDA", "result": 18.8}, {"measurement": "K", "setting": "[2]; 1 Host:1 Guest binding mode", "result": "1.58 × 10^5"}, {"measurement": "K11", "setting": "[2]; 1 Host:2 Guest binding mode", "result": "1.49 × 10^7"}, {"measurement": "K12", "setting": "[2]; 1 Host:2 Guest binding mode", "result": "1.17 × 10^2"}, {"measurement": "K", "setting": "[2]; [15]", "result": "1.67e+06", "unit": "M⁻¹"}, {"measurement": "K", "setting": "[3]; 1 Host:1 Guest binding mode", "result": "3.76 × 10^4"}, {"measurement": "K11", "setting": "[3]; 1 Host:2 Guest binding mode", "result": "1.76 × 10^6"}, {"measurement": "K12", "setting": "[3]; 1 Host:2 Guest binding mode", "result": "7.92 × 10^4"}, {"measurement": "K11", "setting": "[3]; 2 Host:1 Guest binding mode", "result": "2.37 × 10^5"}, {"measurement": "K21", "setting": "[3]; 2 Host:1 Guest binding mode", "result": "6.69 × 10^4"}, {"measurement": "ΔE between host and lowest PFOA concentration", "setting": "[4]", "result": 24}]}
